Reference: patent publication US20030109552A1, “Use of insulin sensitisers for treating renal diseases” (SmithKline Beecham p.l.c., priority 1994, published 2003)

Assays:
Type in all cases: in vivo, rat
[1] = tested on: obese Zucker fa/fa rats; test: Renal histopathology in obese Zucker fa/fa rats, 3 months dietary administration; set-up: key to Chronic Nephropathy (histopathological severity, kidney): 0: None seen; ±: Minimal; +: Mild; ++: Moderate; +++: Marked
Description: Obese Zucker rats are known to develop chronic nephropathy in addition to hyperlipidaemia, hyperinsulinaemia and peripheral insulin resistance (Kasiske et al 1985).
5-[4-[2-(N-methyl-N-(2-pyridyl)amino)ethoxy]benzyl]thiazolidine-2,4-dione (herein after referred to as ‘test compound’) was administered to 2-3 month old obese Zucker fa/fa rats by dietary administration to provide a daily dose over a period of 3 months ranging from 2.0-7.0 μmole/kg body weight. A group of age-matched obese Zucker fa/fa rats were given the same diet without the addition of the test compound, as was a group of lean Fa/? rats. At the end of the study, all of the control Zucker fa/fa rats had chronic nephropathy which involved dilated tubules, atrophied or hyperplastic tubular epithelial cells, thickened tubular basement membranes, segmented glomeruli or global glomerulosclerosis.

[2] = tested on: Zucker fatty (fa/fa) rats; test: Systolic blood pressure (tail cuff) in Zucker fatty rats, 9 month study
Description: (§1) A second study was performed in Zucker rats over a period of 9 months to investigate the longitudinal effects of the drug on systolic blood pressure and various indices of renal function, two of which are exemplified here. In one arm of the study, the drug was given in the diet (50 μmole/kg of diet) from aged 6-7weeks in Zucker fatty (fa/fa) rats, whilst in a second arm of the study, drug treatment as above was delayed until proteinuria had become established after 4 months, indicative of structural damage already present in the kidneys. A third group of Zucker fatty rats and a further group of lean rats were given diet alone throughout the period of study.
(§2) After dosing with the test compound, at monthly intervals measurements were made of systolic blood pressure, urinary total protein and urinary N-acetyl β-D-glucosaminidase (NAG) activity.
Rats were enclosed in custom-built restrainers and placed on a shelf in a warming cabinet, whose temperature was controlled at approximately 30° C. An inflatable cuff with integral pulse sensor was attached to the tail of each rat. After warming for 20-30 min the tail cuff was inflated and deflated automatically and a measurement of systolic blood pressure made using an IITC Non-Invasive Blood Pressure Monitor. This cycle was repeated several times for each rat until stable values of blood pressure were obtained.

[3] = tested on: Zucker fatty (fa/fa) rats; test: Urinary total protein (Bio-Rad protein assay, 24 h urine) in Zucker fatty rats, 9 month study
Description: A second study was performed in Zucker rats over a period of 9 months to investigate the longitudinal effects of the drug on systolic blood pressure and various indices of renal function, two of which are exemplified here. […] A third group of Zucker fatty rats and a further group of lean rats were given diet alone throughout the period of study. After dosing with the test compound, at monthly intervals measurements were made of systolic blood pressure, urinary total protein and urinary N-acetyl β-D-glucosaminidase (NAG) activity. Twenty-four hour urine collections, made in metabolism cages, were aliquoted and frozen at −70° C. until required for assay. Urinary protein concentration was measured using the Bio-Rad protein assay as modified for use in a 96-well microtitre plate. The assay is a dye-binding assay based on the differential colour change of a dye in response to various concentrations of protein (Bradford, Anal. Biochem., 72, 248, 1976). After a period of incubation with Dye Reagent, diluted urine samples are read at an optical density of 595 nm using a Molecular Devices multiplate reader.

[4] = tested on: Zucker fatty (fa/fa) rats; test: Urinary N-acetyl β-D-glucosaminidase (NAG) activity in Zucker fatty rats, 9 month study
Description: as §1, §2
Twenty-four hour urine collections, made in metabolism cages, were aliquoted and frozen at −70° C. until required for assay.
NAG activity was assayed using a reagent kit on a Hitachi 717 analyser (both supplied by Boehringer Mannheim UK, Lewes). Enzyme activity was measured by monitoring the rate of chlorophenol (570 nm) released from the substrate chlorophenol red-β-D-glucosaminide.

[5] = Zucker fatty (fa/fa) rats treated from the age of 6-7 weeks for 9 months via the diet
[6] = drug treatment commenced after proteinuria had become established

## CN(CCOc1ccc(CC2SC(=O)NC2=O)cc1)c1ccccn1 (stereo not drawn) [Test Compound, 5-[4-[2-(N-methyl-N-(2-pyridyl)amino)ethoxy]benzyl]thiazolidine-2,4-dione]
[1]; individual fatty Zucker rats, test compound in diet 2.0-7.0 μmole/kg body weight daily
  Chronic Nephropathy (histopathological severity, kidney): ++
[1]; obese Zucker fa/fa rats, diet, 2.0-7.0 μmole/kg daily
  incidence and degree of chronic nephropathy compared to control Zucker fa/fa rats: reduction in the incidence and degree of chronic nephropathy
[1]; obese Zucker fa/fa rats, diet, 2.0-7.0 μmole/kg daily, controls 4/9
  hydronephrosis seen in treated rats: No hydronephrosis was seen
[2]; [5]
  development of hypertension: prevented the development of hypertension
[2]; [6]
  systolic blood pressure (further rise): prevented from rising further
[3]; [5]
  rate of development of proteinuria: markedly reduced
[3]; [6]
  rate of increase in the urinary protein concentration: marked reduction of the rate of increase
[4]; [5]
  elevation of urinary NAG activity: markedly reduced
[4]; [6]
  urinary NAG activity (further rise): prevented from rising further
